Experimental findings from EP4714939A1, “SULFONAMIDE COMPOUND, PREPARATION METHOD THEREFOR, AND PHARMACEUTICAL USE THEREOF” (Shenzhen Salubris Pharmaceuticals Co., Ltd., priority 2023, dated 2024) are described below.

In general, IC90 refers to the concentration at which the effect reaches the 90% level. Read a high IC90 as a need for much substance.

In this assay the test system is Lp(a). In words: In-vitro Lp(a) assembly assay (cell-free, sandwich ELISA). The following applies: inhibition of Lp(a) formation; HepG2 and HEK293 (human Apo(a), 17 Kringle repeats) conditioned media, 37°C, 2 hours; 4-parameter curve. The assay is classed as biochemical. The procedure:
The capability of the compounds in the examples inhibiting the formation of Lp(a) particles in vitro was evaluated through cell-free assembly assay. After incubation at 37°C with 5% CO2 for 96 h, conditioned media (supplemented with 10% FBS, 20 mM HEPES, and 1 × penicillin/streptomycin DMEM) was collected from confluent wild-type HepG2 cells (source of endogenously expressed ApoB) and an HEK293 stable cell line expressing human Apo(a) protein containing 17 Kringle repeats (selected on 1 ug/ml puromycin). In-vitro assembly assay was performed by combining equal parts of HepG2 and HEK293 conditioned media with compounds under test added in a dilution series (final concentration being 0.03-1000 nM). A reaction was incubated at 37°C for 2 hours, and terminated by adding 6-aminocaproic acid (EACA) to a final concentration of 150 mM. Sandwich ELISA was used to detect Lp(a) using an anti-Apo(a) capture antibody (ab242565) and an HRP-conjugated anti-ApoB detection antibody (ab27622). ELISA was performed using TMB staining, and terminated with 1N sulfuric acid, and signals were read at 450 nm on an Envision 2104 plate reader. By setting an assembly reaction without inhibitors to 0% inhibition and an assembly reaction with the minimum amount of HepG2 conditioned medium (50-fold dilution) to 100% inhibition, the % inhibition of Lp(a) formed under each test condition was determined. Table 1 IC90 values of sulfonamide compounds
In general terms: An ELISA detects its analyte on a solid surface through an enzyme-linked reagent.
In turn, `O=C(O)[C@@H](Cc1cccc(CN(Cc2ccc(F)c(C[C@H](C(=O)O)[C@H]3CCNC3)c2)S(=O)(=O)c2cccc(C[C@H](C(=O)O)[C@H]3CCNC3)c2)c1)[C@H]1CCNC1` [Compound 2] had a 90% effect concentration (IC90) of 62.6 nM.
Turning to `O=C(O)[C@@H](Cc1cccc(CN(Cc2cc(C[C@H](C(=O)O)[C@H]3CCNC3)ccc2F)S(=O)(=O)c2cccc(C[C@H](C(=O)O)[C@H]3CCNC3)c2)c1)[C@H]1CCNC1` [Compound 4], the IC90 turned out to be 40.3 nM.
On to `O=C(O)[C@@H](Cc1cccc(CN(Cc2cccc(C[C@H](C(=O)O)[C@H]3CCNC3)c2F)S(=O)(=O)c2cccc(C[C@H](C(=O)O)[C@H]3CCNC3)c2)c1)[C@H]1CCNC1` [Compound 5], for which it took 37.9 nM to reach the 90% level (IC90).
`O=C(O)[C@@H](Cc1cccc(CN(Cc2cccc(C[C@H](C(=O)O)[C@H]3CCNC3)c2)S(=O)(=O)c2ccc(F)c(C[C@H](C(=O)O)[C@H]3CCNC3)c2)c1)[C@H]1CCNC1` [Compound 6]: the IC90 came out at 47.8 nM.
Molecule `O=C(O)C(Cc1cccc(CN(Cc2cccc(CC(C(=O)O)C3CCNC3)c2)S(=O)(=O)c2cc(F)cc(CC(C(=O)O)C3CCNC3)c2)c1)C1CCNC1` [Compound 7, (2S,2'S)-3,3'(3-((S)-2-carboxyl-2-(R)-pyrrolid-3-yl)ethyl)-5-fluorophenyl sulfonyl)azadiyl)dimethylenyl)bis(3,1-phenylenyl)bis(2-(R)-pyrrolid-3-yl)propanoic acid)] showed a concentration for an effect of 90% (IC90) of 69.9 nM.
To `O=C(O)C(Cc1cccc(CN(Cc2cccc(CC(C(=O)O)C3CCNC3)c2)S(=O)(=O)c2cccc(CC(C(=O)O)C3CCNC3)c2F)c1)C1CCNC1` [Compound 8, (2S,2'S)-3,3'(3-(S)-2-carboxyl-2-(R)-pyrrolid-3-yl)ethyl)-2-fluorophenyl sulfonyl)azadiyl)dimethylenyl)bis(3,1-phenylenyl)bis(2-(R)-pyrrolid-3-yl)propanoic acid)] belongs 26.1 nM.
As for `O=C(O)[C@@H](Cc1cccc(CN(Cc2ccc(Cl)c(C[C@H](C(=O)O)[C@H]3CCNC3)c2)S(=O)(=O)c2cccc(C[C@H](C(=O)O)[C@H]3CCNC3)c2)c1)[C@H]1CCNC1` [Compound 10], the IC90 amounted to 52.3 nM.
Consider `O=C(O)[C@@H](Cc1cccc(S(=O)(=O)N(Cc2cc(C[C@H](C(=O)O)[C@H]3CCNC3)ccc2F)Cc2cc(C[C@H](C(=O)O)[C@H]3CCNC3)ccc2F)c1)[C@H]1CCNC1` [Compound 13], for which the 90% effect level (IC90) was put at 11.5 nM.
In turn, `O=C(O)[C@@H](Cc1cccc(S(=O)(=O)N(Cc2ccc(F)c(C[C@H](C(=O)O)[C@H]3CCNC3)c2)Cc2cc(C[C@H](C(=O)O)[C@H]3CCNC3)ccc2F)c1)[C@H]1CCNC1` [Compound 14] registered a concentration for an effect of 90% (IC90) of 24.4 nM.
For `O=C(O)[C@@H](Cc1cccc(CN(Cc2cc(C[C@H](C(=O)O)[C@H]3CCNC3)c(F)cc2F)S(=O)(=O)c2cccc(C[C@H](C(=O)O)[C@H]3CCNC3)c2)c1)[C@H]1CCNC1` [Compound 15], the 90% effect level (IC90) was put at 16 nM.
With `O=C(O)[C@@H](Cc1cccc(S(=O)(=O)N(Cc2cc(C[C@H](C(=O)O)[C@H]3CCNC3)c(F)cc2F)Cc2cc(C[C@H](C(=O)O)[C@H]3CCNC3)c(F)cc2F)c1)[C@H]1CCNC1` [Compound 16] the figure was 23.8 nM.
In turn, `O=C(O)[C@@H](Cc1cccc(CCN(CCc2ccccc2C[C@H](C(=O)O)[C@H]2CCNC2)S(=O)(=O)c2cccc(C[C@H](C(=O)O)[C@H]3CCNC3)c2)c1)[C@H]1CCNC1` [Compound 19] gave an IC90 of 40.9 nM.
For `O=C(O)[C@@H](Cc1cccc(CCN(Cc2cccc(C[C@H](C(=O)O)[C@H]3CCNC3)c2)S(=O)(=O)c2cccc(C[C@H](C(=O)O)[C@H]3CCNC3)c2)c1)[C@H]1CCNC1` [Compound 20], the concentration for an effect of 90% (IC90) was found to be 30.7 nM.
As to `O=C(O)C(Cc1cccc(CCN(CCc2cccc(CC(C(=O)O)C3CCNC3)c2)S(=O)(=O)c2cccc(CC(C(=O)O)C3CCNC3)c2)c1)C1CCNC1` [Compound 21, (2S,2'S)-3,3'(3-((S)-2-carboxyl-2-((R)-pyrrolid-3-yl)ethyl)phenyl)sulfonyl)azadiyl)bis(ethane-2,1-diyl))bis(3,1-phenylenyl)bis(2-(R)-pyrrolid-3-yl)propanoic acid)], it took 33.9 nM to reach the 90% level (IC90).
With `O=C(O)C(Cc1cccc(CN(Cc2ccccc2CC(C(=O)O)C2CCNC2)S(=O)(=O)c2cccc(CC(C(=O)O)C3CCNC3)c2)c1)C1CCNC1` [Compound 23, (S)-3-(3-(((3-(S)-2-carboxyl-2-((R)-pyrrolid-3-yl)ethyl)-N-(2-((S)2-carboxyl-2-(R)pyrrolid-3-yl)ethyl)benzyl)phenyl)sulfonamido)methyl)phenyl)-2-((R)-pyrrolid-3-yl)propanoic acid], the 90% effect level (IC90) was put at 76.2 nM.
Molecule `O=C(O)[C@@H](Cc1cccc(S(=O)(=O)N(CCc2ccccc2C[C@H](C(=O)O)[C@H]2CCNC2)Cc2ccc(F)c(C[C@H](C(=O)O)[C@H]3CCNC3)c2)c1)[C@H]1CCNC1` [Compound 24] registered an IC90 of 25.8 nM.
With `O=C(O)[C@@H](Cc1cccc(S(=O)(=O)N(CCc2ccccc2C[C@H](C(=O)O)[C@H]2CCNC2)Cc2cccc(C[C@H](C(=O)O)[C@H]3CCNC3)c2F)c1)[C@H]1CCNC1` [Compound 25, (S)-3-(3-(N-(3-((S)-2-carboxyl-2-((R)-pyrrolid-3-yl)etyhl)-2-fluorobenzyl) -N-(2-(S)2-carboxyl-2-((R)-pyrrolid-3-yl)ethyl)phenethyl)aminosulfonyl)phenyl)-2-(((R)-pyrrolid-3-yl)propanoic acid] the figure was 81.7 nM; with `O=C(O)[C@@H](Cc1cccc(S(=O)(=O)N(CCc2ccccc2C[C@H](C(=O)O)[C@H]2CCNC2)Cc2cc(C[C@H](C(=O)O)[C@H]3CCNC3)ccc2F)c1)[C@H]1CCNC1` [Compound 26], 86.7 nM; with `O=C(O)[C@@H](Cc1cccc(S(=O)(=O)N(CCc2ccccc2C[C@H](C(=O)O)[C@H]2CCNC2)Cc2cc(C[C@H](C(=O)O)[C@H]3CCNC3)c(F)cc2F)c1)[C@H]1CCNC1` [Compound 27], 79.6 nM.
For `O=C(O)[C@@H](Cc1cc(F)cc(CCN(Cc2cccc(C[C@H](C(=O)O)[C@H]3CCNC3)c2)S(=O)(=O)c2cccc(C[C@H](C(=O)O)[C@H]3CCNC3)c2)c1)[C@H]1CCNC1` [Compound 28], the IC90 came to 86.5 nM.
`O=C(O)C(Cc1cccc(CN(Cc2cccc(CC(C(=O)O)C3CCNC3)c2)S(=O)(=O)c2cc(CC(C(=O)O)C3CCNC3)ccc2F)c1)C1CCNC1` [Compound 29, (2S,2'S)-3,3'(5-((S)-2-carboxyl-2-(R)-pyrrolid-3-yl)ethyl)-2-fluorophenyl sulfonyl)azadiyl)dimethylenyl)bis(3,1-phenylenyl)bis(2-(R)-pyrrolid-3-yl)propanoic acid)]: the 90% effect level (IC90) was put at 24.9 nM.
With `O=C(O)[C@@H](Cc1cccc(CN(Cc2ccc(F)c(C[C@H](C(=O)O)[C@H]3CCNC3)c2F)S(=O)(=O)c2cccc(C[C@H](C(=O)O)[C@H]3CCNC3)c2)c1)[C@H]1CCNC1` [Compound 30], the IC90 was determined as 29 nM.
For the molecule `O=C(O)C(Cc1cccc(S(=O)(=O)N(Cc2c(F)ccc(CC(C(=O)O)C3CCNC3)c2F)Cc2c(F)ccc(CC(C(=O)O)C3CCNC3)c2F)c1)C1CCNC1` [Compound 31, (2S,2'S)-3,3'-((3-((S)-2-carboxyl-2-(R)-pyrrolid-3-yl)ethyl)phenyl)sulfonyl)azadiyl)bis(methylenyl))bis(2,6-difluoro-3,1-phenylenyl)bis(2-(R)-pyrrolid-3-yl)propanoic acid)], the 90% effect concentration (IC90) is 21.1 nM.
In the case of `O=C(O)[C@@H](Cc1cccc(CN(Cc2c(F)ccc(C[C@H](C(=O)O)[C@H]3CCNC3)c2F)S(=O)(=O)c2cccc(C[C@H](C(=O)O)[C@H]3CCNC3)c2)c1)[C@H]1CCNC1` [Compound 32], the 90% effect concentration (IC90) stood at 31.4 nM.
The molecule `O=C(O)C(Cc1ccc(F)c(CN(Cc2cc(CC(C(=O)O)C3CCNC3)ccc2F)S(=O)(=O)c2ccc(F)c(CC(C(=O)O)C3CCNC3)c2)c1)C1CCNC1` [Compound 34, (2S,2'S)-3,3'-(((((3-((S)-2-carboxyl-2-((R)-pyrrolid-3-yl)ethyl)-4-fluorophenyl)sulfonyl)azadiyl)bis(methylenyl))bis(6-fluoro-3,1-phenylenyl))bis(2-((R)-pyrrolid-3-yl)propanoic acid)] showed an IC90 of 17.7 nM.
In turn, `O=C(O)C(Cc1cccc(CN(Cc2cccc(CC(C(=O)O)C3CCNC3)c2)S(=O)(=O)c2ccc(Cl)c(CC(C(=O)O)C3CCNC3)c2)c1)C1CCNC1` [Compound 35, (2S,2'S)-3,3'-(((((3-((S)-2-carboxyl-2-((R)-pyrrolid-3-yl)ethyl)-4-chlorophenyl)sulfonyl)azadiyl)bis(methylenyl))bis(3,1-phenylenyl))bis(2-((R)-pyrrolid-3-yl)propanoic acid)] came in with a concentration for an effect of 90% (IC90) of 41.3 nM.
Turning to `O=C(O)[C@@H](Cc1cc(CN(Cc2ccc(F)c(C[C@H](C(=O)O)[C@H]3CCNC3)c2)S(=O)(=O)c2ccc(Cl)c(C[C@H](C(=O)O)[C@H]3CCNC3)c2)ccc1F)[C@H]1CCNC1` [Compound 36, (2S,2'S)-3,3'-(((((3-((S)-2-carboxyl-2-((R)-pyrrolid-3-yl)ethyl)-4-chlorophenyl)sulfonyl)azadiyl)bis(methylenyl))bis(6-fluoro-3,1-phenylenyl))bis(2-((R)-pyrrolid-3-yl)propanoic acid)], the concentration for an effect of 90% (IC90) is 21.6 nM.
With `O=C(O)[C@@H](Cc1cccc(CCN(Cc2ccc(Cl)c(C[C@H](C(=O)O)[C@H]3CCNC3)c2)S(=O)(=O)c2cccc(C[C@H](C(=O)O)[C@H]3CCNC3)c2)c1)[C@H]1CCNC1` [Compound 38] the figure was 81.8 nM.
